Values quoted from earlier work as cited in patent publication US20260091069A1, “TRANS[…] TRA[…] REGULATED ONCOLYTIC HERPES SIMPLEX VIRUS VECTORS” (VIROGIN BIOTECH CANADA LTD, priority 2021, published 2026).

Details: clinical dose of Ganciclovir

For Nc1nc(O)c2ncn(COC(CO)CO)c2n1 [Ganciclovir], the Cmax in humans is given as 9000 ng/mL.
